Tested on: EU-1
Assay: WST cytotoxicity assay, cancer cell EU-1
Format: cell-based, human
Conditions: Homo sapiens, EU-1, EU-1; no other cell line named in the cell; read-out: Cancer cell (EU-1) cytotoxicity IC50
Description: This study used two ALL cell lines (EU-1 and EU-3) and three NB cell lines (NB-1643, SHEP1 and LA1-55N). All 5 cancer cell lines were established from pediatric ALL or NB patients and were well-characterized for their expression of MDM2 and p53-status, as reported previously. All cell lines were grown in standard culture medium (RPMI 1640 containing 10% FBS, 2 mmol/L L-glutamine, 50 U penicillin and 50 μg/mL streptomycin) at 37° C. in a humidified atmosphere containing 5% CO2.
The cytotoxic effect of MX 69 and MX69 analogs on cancer cells was determined using the water-soluble tetrazolium salt (WST) assay. Briefly, cells cultured in 96-well microtiter plates were treated with different concentrations of AQ-101 for a 20-h period. WST (25 μg/well) was then added and incubation continued for an additional 4 h, after which optical density (OD) was read with a microplate reader (test wavelength of 450 nm; reference wavelength of 620 nm).

SMILES	IC50
Cc1ccc(NS(=O)(=O)c2ccc3c(c2)C2OCC[C@H]2[C@@H](c2ccc(C(=O)C(C)C)cc2)N3)cc1C (some centres unmarked) [Compound 69L52b]	1400 to 1600 nM
Cc1ccc(NS(=O)(=O)c2ccc3c(c2)C2OCC[C@@H]2[C@@H](c2ccc(C(=O)C(C)C)cc2)N3)cc1C (some centres unmarked) [Compound 69L52c]	2400 to 2500 nM
Cc1ccc(NS(=O)(=O)c2ccc3c(c2)C2OCC[C@@H]2[C@H](c2ccc(C(=O)C(C)C)cc2)N3)cc1C (some centres unmarked) [Compound 69L52d]	500 nM
CC(=O)N1CCC([C@@H]2Nc3ccc(S(=O)(=O)Nc4ccc(C)c(C)c4)cc3C3OCC[C@H]32)CC1 (some centres unmarked) [Compound 69L57, 4-(1-acetylpiperidin-4-yl)-N-(3,4-dimethylphenyl)-2,3,3a,4,5,9b-hexahydrofuran[3,2-c]quinolone-8-sulfonamine]	10800 nM
Cc1ccc(NS(=O)(=O)c2ccc3c(c2)[C@H]2OCC[C@H]2C(c2ccc(C(=O)C4CC4)cc2)N3)cc1C (some centres unmarked) [Compound 69L67]	5180 nM
O=S(=O)(Nc1ccc(Br)c(Br)c1)c1ccc2c(c1)[C@H]1OCC[C@H]1[C@H](C1CCCCC1)N2 [Compound 69L68]	5100 nM
Cc1ccc(NS(=O)(=O)c2ccc3c(c2)[C@H]2OCC[C@H]2C(c2ccc(C(=O)C4CC4)cc2)N3)cc1Cl (some centres unmarked) [Compound 69L69]	5810 nM
C=CC(=O)c1ccc(C2Nc3ccc(S(=O)(=O)Nc4ccc(C)c(C)c4)cc3[C@H]3OCC[C@@H]23)cc1 (some centres unmarked) [Compound 69L71]	30000 nM
CC(C)C(=O)c1ccc(C2Nc3ccc(S(=O)(=O)Nc4ccc(Br)c(Br)c4)cc3[C@H]3OCC[C@@H]23)cc1 (some centres unmarked) [Compound 69L74]	5230 nM
CC(C)C(=O)c1ccc(C2Nc3ccc(S(=O)(=O)Nc4ccc(Cl)c(Cl)c4)cc3[C@H]3OCC[C@@H]23)cc1 (some centres unmarked) [Compound 69L76]	5590 nM
Cc1cc(NS(=O)(=O)c2ccc3c(c2)[C@H]2OCC[C@H]2C(c2ccc(C(=O)C(C)C)cc2)N3)ccc1Cl (some centres unmarked) [Compound 69L77]	6290 nM
Cc1ccc(NS(=O)(=O)c2ccc3c(c2)[C@H]2NCC[C@H]2[C@H](c2ccc(C(=O)C(C)C)cc2)N3)cc1C [Compound 69L82]	29700 nM
Cc1ccc(NS(=O)(=O)c2ccc3c(c2)C2CCC[C@H]2[C@H](c2ccc(C(O)C(C)C)cc2)N3)cc1C (some centres unmarked) [Compound 69L86]	3770 nM
Cc1ccc(NS(=O)(=O)c2ccc3c(c2)C2CCC[C@H]2[C@H](c2ccc(C(=O)C(C)C)cc2)N3)cc1C (some centres unmarked) [Compound 69L88]	6970 nM
Cc1cc(NS(=O)(=O)c2ccc3c(c2)C2OCC[C@H]2C(c2ccc(C(=O)C(C)C)cc2)N3)ccc1C(F)(F)F (some centres unmarked) [Compound 69L89]	7200 nM
Cc1cc(NS(=O)(=O)c2ccc3c(c2)C2OCC[C@H]2C(C2CCCCC2)N3)ccc1C(F)(F)F (some centres unmarked) [Compound 69L90]	3260 nM
O=S(=O)(Nc1ccc(C(F)(F)F)c(C(F)(F)F)c1)c1ccc2c(c1)C1OCC[C@H]1C(C1CCCCC1)N2 (some centres unmarked) [Compound 69L91]	> 10000 nM
Cc1ccc(NS(=O)(=O)c2ccc3[nH]c(-c4ccc(C(=O)C(C)C)cc4)c(I)c(=O)c3c2)cc1C [Compound 69L97]	9360 nM
CC(=O)c1ccc(C2Nc3ccc(S(=O)(=O)Nc4cccc(C(C)=O)c4)cc3[C@H]3OCC[C@@H]23)cc1 (some centres unmarked) [Compound 69L110]	270 nM
CC(=O)c1ccc(NS(=O)(=O)c2ccc3c(c2)[C@H]2OCC[C@H]2C(c2ccc(C(C)=O)cc2)N3)cc1 (some centres unmarked) [Compound 69L111]	1370 nM
CC(=O)c1cccc(NS(=O)(=O)c2ccc3c(c2)[C@H]2OCC[C@H]2C(c2ccc(C(C)C)cc2)N3)c1 (some centres unmarked) [Compound 69L115]	560 nM
O=S(=O)(Nc1ccc2c(c1)CCO2)c1ccc2c(c1)[C@H]1OCC[C@H]1C(c1ccccc1)N2 (some centres unmarked) [Compound 69L118]	150 nM
CC(C)C(=O)c1cccc(C2Nc3ccc(S(=O)(=O)Nc4cccc(C(C)O)c4)cc3C3OCC[C@@H]23)c1 (some centres unmarked) [Compound 69L122]	> 10000 nM
CC(=O)c1cccc(C2CC(=O)c3cc(S(=O)(=O)Nc4ccc5c(c4)COC5)ccc3N2)c1 (centres unmarked) [Compound 69L124, 2-(3-acetylphenyl)-N-(1,3-dihydroisobenzofuran-5-yl)-4-oxo-1,2,3,4-tetrahydroquinoline-6-sulfonamide]	460 nM
CCC(=O)c1cccc(NS(=O)(=O)c2ccc3c(c2)C2OCC[C@H]2C(c2ccc(C(=O)C(C)C)cc2)N3)c1 (some centres unmarked) [Compound 69L125, 4-(4-isobutyrylphenyl)-N-(3-propionylphenyl)-2,3,3a,4,5,9b-hexahydrofuro[3,2-c]quinoline-8-sulfonimide]	1480 nM
CCC(=O)c1cccc(NS(=O)(=O)c2ccc3c(c2)C(=O)CC(c2cccc(C(C)=O)c2)N3)c1 (centres unmarked) [Compound 69L126, 2-(3-acetylphenyl)-4-oxo-N-(3-propionylphenyl)-1,2,3,4-tetrahydro-quinoline-6-sulfonamide]	1140 nM
O=S(=O)(Nc1ccc2c(c1)CCO2)c1ccc2c(c1)C1OCC[C@H]1C(c1ccc3c(c1)CCO3)N2 (some centres unmarked) [Compound 69L128]	1310 nM

SMILES	IC50
CCC(=O)c1cccc(NS(=O)(=O)c2ccc3c(c2)C(=O)CC(c2ccc4c(c2)CCO4)N3)c1 (centres unmarked) [Compound 69L129]	650 nM
CC(=O)c1cccc(NS(=O)(=O)c2ccc3c(c2)C2NCC[C@H]2C(c2ccc(C(=O)C(C)C)cc2)N3)c1 (some centres unmarked) [Compound 69L130]	> 10000 nM
CC(C)C(=O)c1ccc(C2Nc3ccc(S(=O)(=O)Nc4cccc(C(C)C)c4)cc3[C@H]3OCC[C@@H]23)cc1 (some centres unmarked) [Compound 69L134]	6530 nM
CC(=O)c1cccc(C2CC(=O)c3cc(S(=O)(=O)Nc4cccc(C(C)C)c4)ccc3N2)c1 (centres unmarked) [Compound 69L135]	150 nM
CC(C)C(=O)c1ccc(C2Nc3ccc(S(=O)(=O)Nc4cccc(C(C)(C)C)c4)cc3[C@H]3OCC[C@@H]23)cc1 (some centres unmarked) [Compound 69L136]	6160 nM
CC(C)c1cccc(NS(=O)(=O)c2ccc3c(c2)C(=O)CC(c2cccc(C(C)C)c2)N3)c1 (centres unmarked) [Compound 69L137]	5000 nM
CC(C)c1cccc(C2CC(=O)c3cc(S(=O)(=O)Nc4ccc5c(c4)CCO5)ccc3N2)c1 (centres unmarked) [Compound 69L138]	1400 nM
CC(C)C(=O)c1cccc(C2CC(=O)c3cc(S(=O)(=O)Nc4cccc(C(C)C)c4)ccc3N2)c1 (centres unmarked) [Compound 69L139]	660 nM
CC(C)C(=O)c1cccc(C2CC(=O)c3cc(S(=O)(=O)Nc4ccc5c(c4)CCO5)ccc3N2)c1 (centres unmarked) [Compound 69L140]	230 nM
CC(C)C(=O)c1ccc(C2Nc3ccc(S(=O)(=O)Nc4cccc(N(C)C)c4)cc3[C@H]3OCC[C@@H]23)cc1 (some centres unmarked) [Compound 69L141]	7500 nM
CC(C)C(=O)c1ccc(C2Nc3ccc(S(=O)(=O)Nc4ccc5c(c4)OCO5)cc3[C@H]3OCC[C@@H]23)cc1 (some centres unmarked) [Compound 69L142]	> 5000 nM
CN(C)c1cccc(NS(=O)(=O)c2ccc3c(c2)[C@H]2OCC[C@H]2[C@H](C2CCCCC2)N3)c1 [Compound 69L143]	3960 nM
CC(=O)c1cccc(NS(=O)(=O)c2ccc3c(c2)[C@H]2OCC[C@H]2[C@H](C2CCCCC2)N3)c1 [Compound 69L144]	1530 nM
CC(C)C(=O)c1cccc(C2CC(=O)c3cc(S(=O)(=O)Nc4ccc(Cl)c(Cl)c4)ccc3N2)c1 (centres unmarked) [Compound 69L145]	3500 nM
CC(C)C(=O)c1ccc(C2Nc3ccc(S(=O)(=O)Nc4cccc5c4COC5=O)cc3[C@H]3OCC[C@@H]23)cc1 (some centres unmarked) [Compound 69L146]	3810 nM
CC(=O)c1cccc(C2CC(=O)c3cc(S(=O)(=O)Nc4ccc5c(c4)OCO5)ccc3N2)c1 (centres unmarked) [Compound 69L147]	1160 nM
CCc1cccc(NS(=O)(=O)c2ccc3c(c2)[C@H]2OCC[C@H]2C(c2ccc(C(=O)C(C)C)cc2)N3)c1 (some centres unmarked) [Compound 69L148]	2050 nM
CC(C)C(=O)c1cccc(C2CC(=O)c3cc(S(=O)(=O)Nc4cccc5c4COC5=O)ccc3N2)c1 (centres unmarked) [Compound 69L149]	580 nM
CCc1cccc(NS(=O)(=O)c2ccc3c(c2)C(=O)CC(c2cccc(C(=O)C(C)C)c2)N3)c1 (centres unmarked) [Compound 69L150, N-(3-ethylphenyl)-2-(3-isobutyrylphenyl)-4-oxo-1,2,3,4-tetrahydroquinoline-6-sulfonamide]	40 nM
CC(C)C(=O)c1cccc(C2CC(=O)c3cc(S(=O)(=O)Nc4cccc(C#N)c4)ccc3N2)c1 (centres unmarked) [Compound 69L155]	1450 nM
Cc1ccc(NS(=O)(=O)c2ccc3c(c2)C(=O)CC(c2cccc(C(=O)C(C)C)c2)N3)cc1C#N (centres unmarked) [Compound 69L156]	540 nM
COc1cccc(NS(=O)(=O)c2ccc3c(c2)C(=O)CC(c2cccc(C(=O)C(C)C)c2)N3)c1 (centres unmarked) [Compound 69L157, 2-(3-isobutyrylphenyl)-N-(3-methoxyphenyl)-4-oxo-1,2,3,4-tetrahydroquinoline-6-sulfonamide]	330 nM
Cc1ccc(NS(=O)(=O)c2ccc3c(c2)C(=O)CC(c2cccc(C(=O)N(C)C)c2)N3)cc1C (centres unmarked) [Compound 69L158]	630 nM
COc1cccc(NS(=O)(=O)c2ccc3c(c2)C(=O)CC(c2cccc(C(=O)N(C)C)c2)N3)c1 (centres unmarked) [Compound 69L159, 3-(6-(N-(3-methoxyphenyl)sulfamoyl)-4-oxo-1,2,3,4-tetrahydroquinolin-2-yl)-N,N-dimethylbenzamide]	650 nM
COc1cc(NS(=O)(=O)c2ccc3c(c2)C(=O)CC(c2cccc(C(=O)C(C)C)c2)N3)ccc1C (centres unmarked) [Compound 69L160, 2-(3-isobutyrylphenyl)-N-(3-methoxy-4-methylphenyl)-4-oxo-1,2,3,4-tetrahydroquinoline-6-sulfonamide]	540 nM
COc1cc(NS(=O)(=O)c2ccc3c(c2)C(=O)CC(c2cccc(C(=O)N(C)C)c2)N3)ccc1C (centres unmarked) [Compound 69L161]	820 nM

Source: US20240059658A1 (Emory University, priority 2019, published 2024)
